Drawing on ChEMBL document CHEMBL5241088, “Selective SIRT2 inhibitors as promising anticancer therapeutics: An update from 2016 to 2020” (Eur J Med Chem, 2021), this text covers IC50, inhibition and GI50 for 14 compounds.

A word on the pIC50: it is the negative decadic logarithm of the IC50, by convention in mol/L. What is called inhibition is the drop in the measured response relative to a control, in per cent. A lower inhibition goes with a weak effect. What is called GI50 is the concentration giving 50% growth inhibition.

pIC50: −log10 of the molar value.

For one assay, the system named is Raji. Kind of assay: Cytotoxicity against human Raji cells assessed as cell viability after 72 hrs by CellTiter-Glo assay. It counts as functional, cell-based. (Cellular ATP, detected with luciferase, serves as a proxy for viable cell number.)
Assay [1] can be described thus: Cytotoxicity against human DLBCL cells assessed as cell viability after 72 hrs by CellTiter-Glo assay. It counts as functional, cell-based.
The subject of assay [2] is MCF7. Kind of assay: Antiproliferative activity against human MCF7 cells. Format: functional, cell-based.
Assay [3] has as its target T1, NAD-dependent protein deacetylase sirtuin-2 (Homo sapiens, UniProt Q8IXJ6).
T1 sequence (Q8IXJ6 whole entry): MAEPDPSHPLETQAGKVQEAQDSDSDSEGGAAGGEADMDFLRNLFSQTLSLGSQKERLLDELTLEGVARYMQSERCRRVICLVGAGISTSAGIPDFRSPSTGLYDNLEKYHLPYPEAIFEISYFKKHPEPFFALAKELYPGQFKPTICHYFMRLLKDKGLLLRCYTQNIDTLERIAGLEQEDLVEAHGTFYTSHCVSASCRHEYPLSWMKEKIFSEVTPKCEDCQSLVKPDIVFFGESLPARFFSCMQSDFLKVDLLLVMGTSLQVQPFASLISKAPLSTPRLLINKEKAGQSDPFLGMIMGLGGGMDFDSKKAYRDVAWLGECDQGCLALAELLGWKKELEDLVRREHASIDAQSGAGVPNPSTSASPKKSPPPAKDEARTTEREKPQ
Briefly: Inhibition of human SIRT2 deacetylase activity using QPKKac as substrate.

The subject of a further assay is HEK-293T. Kind of assay: Antiproliferative activity against human HEK293T cells. It counts as functional, cell-based.
Assay [4] concerns the target T1, NAD-dependent protein deacetylase sirtuin-2. Briefly: Inhibition of human SIRT2 demyristoylation activity using ETDKac as substrate.
Assay [5] has the same target. Kind of assay: Inhibition of human SIRT2 using sirtuin substrate incubated for 30 mins by enzymatic fluorescence assay.
Assay [6] has the same target. Kind of assay: Inhibition of human SIRT2 using Ac-peptide as substrate assessed as fluorescence intensity by microplate reader.
A further assay concerns MDA-MB-468. Kind of assay: Cytotoxicity against human MDA-MB-468 cells assessed as cell viability measured after 3 days by Cell Titer Blue assay. It counts as functional, cell-based. To be noted: MDA-MB-468, 72 h.
The test system of assay [7] is MDA-MB-231. Kind of assay: Cytotoxicity against human MDA-MB-231 cells assessed as cell viability measured after 3 days by Cell Titer Blue assay. Format: functional, cell-based. As to conditions: MDA-MB-231, 72 h. A general note: Alamar Blue is a resazurin reagent that responds to reducing activity.
Assay [8] relates to MCF7. Kind of assay: Cytotoxicity against human MCF7 cells assessed as cell viability measured after 3 days by Cell Titer Blue assay. It counts as functional, cell-based. To be noted: MCF7, 72 h.
Assay [9] has as its target T1, NAD-dependent protein deacetylase sirtuin-2. Briefly: Inhibition of human SIRT2 expressed in Escherichia coli BL21(DE3) using Ac-Arg-His-Lys-[Lys-(Ac)]-AMC substrate.
Assay [10] deals with T2, NAD-dependent protein deacetylase sirtuin-2 (Homo sapiens) (UniProt Q8IXJ6).
T2 sequence (whole entry): T1 sequence (Q8IXJ6 whole entry)
Kind of assay: Inhibition of human SIRT2 (34 to 356 amino acids) by surface plasmon resonance assay relative to control. As to conditions: concentration not given here.

Assay [11] has as its target T1, NAD-dependent protein deacetylase sirtuin-2. Kind of assay: Inhibition of SIRT2 (unknown origin).
Assay [12] relates to MCF7. Briefly: Antiproliferative activity against human MCF7 cells incubated for 72 hrs by MTT assay. It counts as functional.
Assay [13] has as its system MDA-MB-231. Kind of assay: Antiproliferative activity against human MDA-MB-231 cells incubated for 72 hrs by MTT assay. Format: functional. On the technique in general: Tetrazolium dyes change colour on reduction, which living cells bring about.
In assay [14] the target is T1, NAD-dependent protein deacetylase sirtuin-2. Briefly: Inhibition of human GST-fused SIRT2 expressed in Escherichia coli BL21(DE3).
For assay [15] the target is unchanged. Kind of assay: Inhibition of recombinant SIRT2 (unknown origin) using (FAM)-labeled fluorescent peptide-RHKK(Ac)LM by electrophoretic mobility shift assay.

As to `CNC(=O)C(Cc1c(O)ccc2cc(Br)ccc12)C(=O)c1ccc(Br)cc1` (stereo not drawn), the negative logarithm of the IC50 (pIC50) is 5.04 in the assay on Raji and 5.24 in assay [1].

As for `CCCCCCCCCCCCCC(=S)NCCCC[C@H](NS(C)(=O)=O)C(=O)N[C@H](C)C(=O)N[C@@H](CCCNC(=N)N)C(N)=O`, the negative logarithm of the IC50 (pIC50) in the assay on MCF7 [2] was 6.30; in assay [3] it was 7.15; in the assay on HEK-293T, 7.00.

As for `CCCCCCCCCCCCCC(=S)NCCCC[C@H](NS(C)(=O)=O)C(=O)N[C@@H](C)C(=O)N[C@@H](CCCNC(=N)N)C(N)=O`, the negative-log IC50 (pIC50) in the assay with MCF7 [2] was 7.30; in [4], 7.05; with HEK-293T it was 8.00.

Consider `CC(C)=CCc1c(O)cc2oc3cc(O)c(O)c(CC=C(C)C)c3c(=O)c2c1O`, for which the pIC50 in [5] is 5.42.

As for `O=C(CSc1nnc2c3ccccc3n(Cc3ccccc3)c2n1)Nc1cccc2ccccc12`, the pIC50 in [6] is 5.89.

`CCCCCCCCCCCCCC(=S)NCCCCC(NC(=O)OCc1ccccc1)C(=O)Nc1ccccc1` (stereo not drawn): the negative-log IC50 (pIC50) in the assay on MDA-MB-468 was 5.07; with MDA-MB-231 [7], 4.47; in the assay with MCF7 [8] it was 5.08.

`COc1c(O)cc2oc3cc(O)c(CC=C(C)C)c(O)c3c(=O)c2c1CC=C(C)C` [MANGOSTIN] had a pIC50 in [5] of 5.04.

`COc1ccc2cc(S(=O)(=O)Cc3ccc(OC(C)=O)cc3)oc2c1`: the pIC50 in assay [9] is 5.42.

Take `CCOC(=O)c1c(/C=N/OCc2cn(CC(=O)c3ccc(OC)cc3)nn2)c2ccccc2n1C`: the inhibition in assay [10] was determined as 73.1%.

Consider `C[C@H](NC(=O)[C@H](CCCCNC(=S)CNC(=O)c1ccccc1Nc1cccc(OCCc2ccccc2)c1)NC(=O)OCc1ccccc1)C(N)=O`, for which, in assay [11], the pIC50 was 5.81. Further, the GI50 with MCF7 [12] and in the assay with MDA-MB-231 [13] was 8.3 µM each time.

The compound `COc1cc2oc3cc(O)c(OC)c(CC=C(C)C)c3c(=O)c2c(O)c1CC=C(C)C` gave a pIC50 in [5] of 4.72.

`Cc1[nH]c2c(c1C(=O)N(C)Cc1cccc(-c3ccc(C(F)(F)F)cc3)c1)C(=O)CC(C)(C)C2` had a pIC50 in assay [11] of 6.01.

Compound `CCC(C)(C)c1ccc(OCC(O)CN2C[C@@H]3C[C@H](C2)c2cccc(=O)n2C3)c(C(C)(C)CC)c1` (stereo partly drawn) gave a pIC50 in [14] of 6.34.

On to `C=CCNC(=S)N/N=C/c1ccc(OC)c(Cn2cc([N+](=O)[O-])cn2)c1`, for which, in [15], the pIC50 was 6.74.
